The source of these data is patent publication US9624214B2, “Amino-substituted imidazo[1,2-a]pyridinecarboxamides and their use” (BAYER PHARMA AKTIENGESELLSCHAFT, priority 2012, dated 2017).

Each structure is given as a SMILES string. Where a name gives a salt, the structure may show the parent alone.

In this assay the target is T1, recombinant guanylate cyclase reporter cell line (Rattus norvegicus, UniProt P19686+P20595).
T1 construct: expressed in transfected cells
T1 sequence (P20595 1-619): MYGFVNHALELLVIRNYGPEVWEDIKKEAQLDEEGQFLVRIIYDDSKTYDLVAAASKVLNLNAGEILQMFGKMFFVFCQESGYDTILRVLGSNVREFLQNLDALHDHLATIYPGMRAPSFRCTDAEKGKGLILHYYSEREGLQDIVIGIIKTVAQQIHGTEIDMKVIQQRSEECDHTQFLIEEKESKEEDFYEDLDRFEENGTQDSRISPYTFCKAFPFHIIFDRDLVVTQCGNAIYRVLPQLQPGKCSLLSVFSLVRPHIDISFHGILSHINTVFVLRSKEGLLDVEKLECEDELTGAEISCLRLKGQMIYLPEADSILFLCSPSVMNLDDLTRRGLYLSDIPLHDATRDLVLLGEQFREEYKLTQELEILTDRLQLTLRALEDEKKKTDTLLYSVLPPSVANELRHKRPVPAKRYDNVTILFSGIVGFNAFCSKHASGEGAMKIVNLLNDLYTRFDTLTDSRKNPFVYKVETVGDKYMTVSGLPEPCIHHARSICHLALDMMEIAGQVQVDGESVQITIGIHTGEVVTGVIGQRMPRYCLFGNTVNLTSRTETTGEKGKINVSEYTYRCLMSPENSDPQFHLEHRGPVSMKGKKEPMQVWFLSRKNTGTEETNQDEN
T1 sequence (P19686 1-690): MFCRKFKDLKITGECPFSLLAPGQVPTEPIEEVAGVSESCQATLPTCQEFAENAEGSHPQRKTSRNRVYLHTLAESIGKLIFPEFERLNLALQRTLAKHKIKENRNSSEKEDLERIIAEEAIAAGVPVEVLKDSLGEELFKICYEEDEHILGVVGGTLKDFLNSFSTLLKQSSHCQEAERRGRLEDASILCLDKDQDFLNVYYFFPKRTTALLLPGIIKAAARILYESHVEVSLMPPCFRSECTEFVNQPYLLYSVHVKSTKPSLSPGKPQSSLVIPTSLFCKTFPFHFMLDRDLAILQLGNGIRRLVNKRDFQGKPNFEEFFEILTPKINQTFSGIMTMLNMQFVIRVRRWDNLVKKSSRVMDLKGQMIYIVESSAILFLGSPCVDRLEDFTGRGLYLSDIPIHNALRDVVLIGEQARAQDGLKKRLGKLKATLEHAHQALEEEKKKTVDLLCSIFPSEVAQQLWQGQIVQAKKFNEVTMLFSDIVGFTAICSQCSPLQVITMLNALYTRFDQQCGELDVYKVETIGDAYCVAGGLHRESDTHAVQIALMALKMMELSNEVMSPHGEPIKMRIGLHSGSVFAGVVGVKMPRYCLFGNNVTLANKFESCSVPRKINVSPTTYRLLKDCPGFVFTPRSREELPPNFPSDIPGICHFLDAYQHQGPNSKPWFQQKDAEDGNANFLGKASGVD
In words: B-2. Action on recombinant guanylate cyclase reporter cell line. Type of assay: cell-based. The following applies: MEC = minimal effective concentration; in some cases mean values from individual determinations. The method, then: B-2. Action on Recombinant Guanylate Cyclase Reporter Cell Line
The cellular action of the compounds according to the invention is determined on a recombinant guanylate cyclase reporter cell line, as described in F. Wunder et al., Anal. Biochem. 339, 104-112 (2005).
Representative MEC values (MEC=minimal effective concentration) for the compounds according to the invention are shown in the following table (in some cases as mean values obtained from individual determinations): […]
With `Cc1cc(OCc2c(F)cccc2F)c2nc(C)c(C(=O)NCC(N)c3cccc(C(F)(F)F)c3)n2c1` (racemic) [Example 376, rac-N-{2-amino-2-[3-(trifluoromethyl)phenyl]ethyl}-8-[(2,6-difluorobenzyl)oxy]-2,6-dimethylimidazo[1,2-a]pyridine-3-carboxamide], the MEC came to 3.00 µM.

Turning to `C#Cc1cc(OCc2c(F)cccc2F)c2nc(C)c(C(=O)NCC(C)(N)CCC)n2c1` (stereo not drawn) [Example 355, ent-N-(2-amino-2-methylpentyl)-8-[(2,6-difluorobenzyl)oxy]-6-ethynyl-2-methylimidazo[1,2-a]pyridine-3-carboxamide Formate], the MEC came to 0.30 µM.

Turning to `Cc1cc(OCc2c(F)cccc2F)c2nc(C)c(C(=O)NCC(C)(N)Cc3ccc(F)cc3)n2c1` (racemic) [Example 296, rac-N-[2-amino-3-(4-fluorophenyl)-2-methylpropyl]-8-[(2,6-difluorobenzyl)oxy]-2,6-dimethylimidazo[1,2-a]pyridine-3-carboxamide], the MEC stood at 0.10 µM.

In the case of `Cc1cc(OCc2c(F)cccc2F)c2nc(C)c(C(=O)N[C@@H]3CC[C@](C)(N)C3(C)C)n2c1` [Example 324, N-[(1R,3S)-3-amino-2,2,3-trimethylcyclopentyl]-8-[(2,6-difluorobenzyl)oxy]-2,6-dimethylimidazo[1,2-a]pyridine-3-carboxamide], the MEC was found to be 1.00 µM.

Take `Cc1nc2c(OCc3c(F)cccc3F)cccn2c1C(=O)NCC(C)(N)CC(C)C` (single isomer, unassigned) [Example 204, ent-N-(2-Amino-2,4-dimethylpentyl)-8-[(2,6-difluorobenzyl)oxy]-2-methylimidazo[1,2-a]pyridine-3-carboxamide]: the MEC was found to be 1.00 µM.

Turning to `Cc1cc(OCc2c(F)cccc2F)c2nc(C)c(C(=O)NCC(C)(N)CCO)n2c1` (single isomer, unassigned; enantiomer a) [Example 271, ent-N-(2-Amino-4-hydroxy-2-methylbutyl)-8-[(2,6-difluorobenzyl)oxy]-2,6-dimethylimidazo[1,2-a]pyridine-3-carboxamide (Enantiomer A)], the MEC amounted to 0.30 µM.

Turning to `CCCC(C)(N)CNC(=O)c1c(C)nc2c(OCc3ccccc3)cc(C)cn12` (racemic) [Example 340, rac-N-(2-amino-2-methylpentyl)-8-(benzyloxy)-2,6-dimethylimidazo[1,2-a]pyridine-3-carboxamide], the MEC was found to be 1.00 µM.

Take `Cc1cc(OCc2c(F)cccc2F)c2nc(C)c(C(=O)NCC(C)(C)NCCO)n2c1` [Example 349, 8-[(2,6-Difluorobenzyl)oxy]-N-{2-[(2-hydroxyethyl)amino]-2-methylpropyl}-2,6-dimethylimidazo[1,2-a]pyridine-3-carboxamide]: the MEC came out at 1.00 µM.

Turning to `Cc1nc2c(OCc3c(F)cccc3F)cc(Cl)cn2c1C(=O)NCCCN` [Example 37, N-(3-aminopropyl)-6-chloro-8-[(2,6-difluoro-benzyl)oxy]-2-methylimidazo[1,2-a]pyridine-3-carboxamide], the MEC turned out to be 1.00 µM.

In the case of `CC(=O)Nc1cccc(C(CN)NC(=O)c2c(C)nc3c(OCc4c(F)cccc4F)cc(C)cn23)c1` (racemic) [Example 396, rac-N-[1-(3-acetamidophenyl)-2-aminoethyl]-8-[(2,6-difluorobenzyl)oxy]-2,6-dimethylimidazo[1,2-a]pyridine-3-carboxamide], the MEC was 3.00 µM.

Consider `Cc1cc(OCc2c(F)cccc2F)c2nc(C)c(C(=O)NC3(C)CCC3(C)N)n2c1` (single isomer, unassigned; enantiomer a) [Example 336, ent-N-[(2-amino-1,2-dimethylcyclobutyl]-8-[(2,6-difluorobenzyl)oxy]-2,6-dimethylimidazo[1,2-a]pyridine-3-carboxamide (Enantiomer A)], for which the MEC was found to be 0.30 µM.

For the molecule `Cc1nc2c(OCc3c(F)cccc3F)cccn2c1C(=O)NC1CCNc2ccc(C(F)(F)F)cc21` (single isomer, unassigned; ent-8) [Example 112, ent-8-[(2,6-difluorobenzyl)oxy]-2-methyl-N-[6-(trifluoromethyl)-1,2,3,4-tetrahydroquinolin-4-yl]imidazo[1,2-a]pyridine-3-carboxamide], the MEC is 0.10 µM.

As to `COCC(CN)NC(=O)c1c(C)nc2c(OCc3c(F)cccc3F)cc(C)cn12` (single isomer, unassigned) [Example 210, ent-N-(1-amino-3-methoxypropan-2-yl)-8-[(2,6-difluorobenzyl)oxy]-2,6-dimethylimidazo[1,2-a]-pyridine-3-carboxamide Trifluoroacetate], the MEC came to 0.30 µM.

In the case of `CCOCC(CN)NC(=O)c1c(C)nc2c(OCc3c(F)cccc3F)cccn12` (single isomer, unassigned) [Example 56, ent-N-(1-amino-3-ethoxypropan-2-yl)-8-[(2,6-difluorobenzyl)oxy]-2-methylimidazo[1,2-a]-pyridine-3-carboxamide], the MEC was 1.00 µM.

As to `CC=CCC(N)CNC(=O)c1c(C)nc2c(OCc3c(F)cccc3F)cc(C)cn12` (racemic) [Example 406, rac-N-[(4E/Z)-2-aminohex-4-en-1-yl]-8-[(2,6-difluorobenzyl)oxy]-2,6-dimethylimidazo[1,2-a]pyridine-3-carboxamide], the MEC is 0.10 µM.

Turning to `Cc1nc2c(OCc3c(F)cccc3F)cccn2c1C(=O)NCC1(N)CCCC1` [Example 41, N-[(1-aminocyclopentyl)methyl]-8-[(2,6-difluorobenzyl)oxy]-2-methylimidazo[1,2-a]-pyridine-3-carboxamide], the MEC worked out at 0.30 µM.

As for `Cc1nc2c(OCc3c(F)cccc3F)cccn2c1C(=O)NC1CNc2ccccc21` (racemic) [Example 28, rac-8-[(2,6-difluorobenzyl)oxy]-N-(2,3-dihydro-1H-indol-3-yl)-2-methylimidazo[1,2-a] pyridine-3-carboxamide], the MEC was found to be 0.30 µM.

Regarding `Cc1cc(OCc2c(F)cccc2F)c2nc(C)c(C(=O)NC(CN)c3cnn(C)c3)n2c1` (racemic) [Example 387, rac-N-[2-amino-1-(1-methyl-1H-pyrazol-4-yl)ethyl]-8-[(2,6-difluorobenzyl)oxy]-2,6-dimethylimidazo[1,2-a]pyridine-3-carboxamide], the MEC was determined as 10.0 µM.

With `CCCC(C)(N)CNC(=O)c1c(C)nc2c(OCc3c(F)cccc3F)cc(C)cn12` (racemic) [Example 232, rac-N-(2-Amino-2-methylpentyl)-8-[(2,6-difluorobenzyl)oxy]-2,6-dimethylimidazo[1,2-a]pyridine-3-carboxamide], the MEC stood at 0.10 µM.

Regarding `Cc1cc(OCc2c(F)cccc2F)c2nc(C)c(C(=O)NC3(C)CC3(C)N)n2c1` (racemic) [Example 320, rac-N-(2-amino-1,2-dimethylcyclopropyl)-8-[(2,6-difluorobenzyl)oxy]-2,6-dimethylimidazo[1,2-a]pyridine-3-carboxamide (Racemate)], the MEC was 0.30 µM.

Turning to `Cc1cc(OCc2c(F)cccc2F)c2nc(C)c(C(=O)NCCNC(C)C)n2c1` (racemic) [Example 135, rac-8-[(2,6-difluorobenzyl)oxy]-N-[2-(isopropylamino)ethyl]-2,6-dimethylimidazo[1,2-a]pyridine-3-carboxamide], the MEC was 1.00 µM.
